Assays:
Format in all cases: cell-based, mouse
[1] = tested on: β-galactosidase in CMV-LacZ C2C12 myotubes; test: CMV-LacZ secondary screen in C2C12 myotubes (β-Gal stabilizing assay); conditions: C2C12 CMV-LacZ myotubes, fold relative to DMSO
Method in brief: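 First, C2C12 myoblasts were transfected with a linearized CMV-LACZ vector and clonal lines selected by FDG β-gal assay. Then cells were exposed to compounds at 0.5, 1, 5, 10, 20 and 40 μM in 96-well format, two replicates each, and β-gal measured.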

[2] = tested on: α7 integrin (LacZ reporter in α7βgal+/− myoblasts); test: Myoblast α7+/LacZ integrin FDG assay (Burkin assay in myoblasts, 96-well); conditions: α7+/LacZ myoblasts, 96-well
[3] = tested on: β-galactosidase in CMV-LacZ C2C12 myoblasts; test: CMV-LacZ secondary screen in C2C12 myoblasts (β-Gal stabilizing assay); conditions: CMV-LacZ C2C12 myoblasts
Method in brief: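 C2C12 myoblasts stably carrying a linearized CMV-driven LacZ construct, clone chosen by β-gal level in the myoblast FDG assay. Compounds tested in 96-well dose-response at 0.5, 1, 5, 10, 20 and 40 μM, N=2 replicates per point, to detect β-gal stabilization.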

[4] = tested on: α7 integrin (LacZ reporter in α7+/LacZ myotubes); test: Myotube α7 integrin FDG assay (Burkin assay in myotubes, 96-well); conditions: myotubes

Structure (SMILES)	CMV-LACZ in Myotubes, signal relative to DMSO ([1]; 0.5 uM)	CMV-LACZ in Myotubes, signal relative to DMSO ([1]; 1 uM)	CMV-LACZ in Myotubes, signal relative to DMSO ([1]; 5 uM)	CMV-LACZ in Myotubes, signal relative to DMSO ([1]; 10 uM)	CMV-LACZ in Myotubes, signal relative to DMSO ([1]; 20 uM)	CMV-LACZ in Myotubes, signal relative to DMSO ([1]; 40 uM)	Burkin Assay in Myoblasts, signal relative to DMSO ([2]; 0.5 uM)	Burkin Assay in Myoblasts, signal relative to DMSO ([2]; 1 uM)	Burkin Assay in Myoblasts, signal relative to DMSO ([2]; 5 uM)	Burkin Assay in Myoblasts, signal relative to DMSO ([2]; 10 uM)	Burkin Assay in Myoblasts, signal relative to DMSO ([2]; 20 uM)	Burkin Assay in Myoblasts, signal relative to DMSO ([2]; 40 uM)	CMV-LACZ in Myoblasts (β-galactosidase activity relative to DMSO) ([3]; 0.5 uM)	CMV-LACZ in Myoblasts (β-galactosidase activity relative to DMSO) ([3]; 1 uM)	CMV-LACZ in Myoblasts (β-galactosidase activity relative to DMSO) ([3]; 5 uM)	CMV-LACZ in Myoblasts (β-galactosidase activity relative to DMSO) ([3]; 10 uM)	CMV-LACZ in Myoblasts (β-galactosidase activity relative to DMSO) ([3]; 20 uM)	CMV-LACZ in Myoblasts (β-galactosidase activity relative to DMSO) ([3]; 40 uM)	Burkin Assay in Myotubes, α7 integrin LacZ reporter signal relative to DMSO ([4]; 0.5 uM)	Burkin Assay in Myotubes, α7 integrin LacZ reporter signal relative to DMSO ([4]; 1 uM)	further results
COC(=O)Cn1c(=O)c2c(nc3n2CC(C)CN3Cc2ccccc2)n(C)c1=O (stereo not drawn) [MLS001166758-01]	0.9958	0.7474	0.9780	0.9444	1.1044	0.9867	0.824	0.7394	0.9736	0.8245	0.7275	0.6174	0.9357	1.0175	1.1998	1.0661	0.6126	0.3481	1.0327	1.027	Burkin Assay in Myotubes, α7 integrin LacZ reporter signal relative to DMSO ([4]; 5 uM): 0.9857; Burkin Assay in Myotubes, α7 integrin LacZ reporter signal relative to DMSO ([4]; 10 uM): 0.8979; Burkin Assay in Myotubes, α7 integrin LacZ reporter signal relative to DMSO ([4]; 20 uM): 0.9856; Burkin Assay in Myotubes, α7 integrin LacZ reporter signal relative to DMSO ([4]; 40 uM): 0.8754
CC(NC(=O)c1ccc(C(C)(C)C)cc1)C(c1cccs1)N1CCOCC1 (stereo not drawn) [MLS001167281-01]	1.0663	1.0789	0.8948	0.9727	1.1089	0.9722	1.089	1.18	1.075	0.9776	0.8869	0.8618	1.0114	1.1289	0.9684	1.1951	0.9256	0.7467	1.063	1.054	Burkin Assay in Myotubes, α7 integrin LacZ reporter signal relative to DMSO ([4]; 5 uM): 1.074; Burkin Assay in Myotubes, α7 integrin LacZ reporter signal relative to DMSO ([4]; 10 uM): 1.142; Burkin Assay in Myotubes, α7 integrin LacZ reporter signal relative to DMSO ([4]; 20 uM): 0.8293; Burkin Assay in Myotubes, α7 integrin LacZ reporter signal relative to DMSO ([4]; 40 uM): 0.8345
CCNC(=O)C(=O)Nc1cc2c3c(c1)CCN3C(=O)CC2 [MLS001167798-01]	0.9143	0.9295	1.1987	1.2238	1.3337	1.2800	1.058	1.166	1.277	1.064	1.051	1.006	1.0342	0.7750	1.1822	1.1494	1.2196	1.1452	1.051	0.9243	Burkin Assay in Myotubes, α7 integrin LacZ reporter signal relative to DMSO ([4]; 5 uM): 1.118; Burkin Assay in Myotubes, α7 integrin LacZ reporter signal relative to DMSO ([4]; 10 uM): 0.9382; Burkin Assay in Myotubes, α7 integrin LacZ reporter signal relative to DMSO ([4]; 20 uM): 0.7983; Burkin Assay in Myotubes, α7 integrin LacZ reporter signal relative to DMSO ([4]; 40 uM): 0.7231
CCN(C(=O)c1ccc(S(=O)(=O)N(C)C)cc1)C(C)C(=O)Nc1ccc(C)cc1 (stereo not drawn) [MLS001170856-01]	1.1095	0.9105	1.0074	1.0562	1.1518	0.8753	0.95	0.8651	0.9744	1.244	0.9217	0.7133	0.7337	0.9857	0.7938	1.0004	0.8881	0.8389	0.8296	0.7436	Burkin Assay in Myotubes, α7 integrin LacZ reporter signal relative to DMSO ([4]; 5 uM): 0.91; Burkin Assay in Myotubes, α7 integrin LacZ reporter signal relative to DMSO ([4]; 10 uM): 1.064; Burkin Assay in Myotubes, α7 integrin LacZ reporter signal relative to DMSO ([4]; 20 uM): 0.7763; Burkin Assay in Myotubes, α7 integrin LacZ reporter signal relative to DMSO ([4]; 40 uM): 1.029
Cc1ccsc1CN(C)CC(=O)Nc1ccc([N+](=O)[O-])cc1Cl [MLS001172822-01]	1.2590	1.0514	1.2505	1.1819	1.1768	0.6358	1.233	1.351	0.9662	0.9014	0.987	0.9597	0.9304	1.0617	1.1375	1.0904	0.9285	1.2767	0.9496	0.9315	Burkin Assay in Myotubes, α7 integrin LacZ reporter signal relative to DMSO ([4]; 5 uM): 0.8513; Burkin Assay in Myotubes, α7 integrin LacZ reporter signal relative to DMSO ([4]; 10 uM): 0.861; Burkin Assay in Myotubes, α7 integrin LacZ reporter signal relative to DMSO ([4]; 20 uM): 0.8466; Burkin Assay in Myotubes, α7 integrin LacZ reporter signal relative to DMSO ([4]; 40 uM): 0.7858
